Test system: Anopheles stephensi
Experiment: Anopheles stephensi treated well plate contact test: knockdown and mortality
Type: in vivo
Conditions: Anopheles stephensi; test compound 0.02 ppm, without TFNA-AM, after 24 hours; read-out: mortality % 24, without TFNA-AM
Experimental: Examples Anopheles stephensi (Indian Malaria Mosquito)
The individual wells of twelve (12) well tissue culture plates were treated with 200 μl of an ethanol solution containing a test compound of Table 1 or Table 2 at a defined concentration and repeated with also 200 μl of an ethanol solution containing in addition 2 ppm TFNA-AM. Once the deposits were dry, five non-blood fed adult female Anopheles stephensi (between two to five day old) were added to each well, and sustained with a 10% sucrose solution in a cotton wool plug. Assessment of the knockdown after 1 hour, and mortality after 24 and 48 hours was carried out.
In case of multiple tests, the mean value is reported.

SMILES	mortality at 0.02 ppm [%]
CC1(C)C(C=C(Cl)Cl)C1C(=O)OC(C#N)c1cccc(Oc2ccccc2)c1 (centres unmarked) [Cypermethrin]	0

Same assay, conditions: Anopheles stephensi; test compound 0.02 ppm, without TFNA-AM, after 48 hours; read-out: mortality % 48, without TFNA-AM

SMILES	mortality at 0.02 ppm [%]
CC1(C)C(C=C(Cl)Cl)C1C(=O)OC(C#N)c1cccc(Oc2ccccc2)c1 (centres unmarked) [Cypermethrin]	20

Same assay, conditions: Anopheles stephensi; test compound 0.02 ppm, without TFNA-AM, knockdown after 1 hour; read-out: Knock Down, without TFNA-AM

SMILES	pest or weed control at 0.02 ppm [%]
CC1(C)C(C=C(Cl)Cl)C1C(=O)OC(C#N)c1cccc(Oc2ccccc2)c1 (centres unmarked) [Cypermethrin]	0

Same assay, conditions: Anopheles stephensi; test compound 0.2 ppm, without TFNA-AM, after 24 hours; read-out: mortality % 24, without TFNA-AM

SMILES	mortality at 0.2 ppm [%]
CC(C)N1C(=O)N(c2ccccc2)CS/C1=N\C(C)(C)C [Buprofezin]	0
CC1(C)C(C=C(Cl)Cl)C1C(=O)OC(C#N)c1cccc(Oc2ccccc2)c1 (centres unmarked) [Cypermethrin]	0

Same assay, conditions: Anopheles stephensi; test compound 0.2 ppm, without TFNA-AM, after 48 hours; read-out: mortality % 48, without TFNA-AM

SMILES	mortality at 0.2 ppm [%]
CC(C)N1C(=O)N(c2ccccc2)CS/C1=N\C(C)(C)C [Buprofezin]	0
CC1(C)C(C=C(Cl)Cl)C1C(=O)OC(C#N)c1cccc(Oc2ccccc2)c1 (centres unmarked) [Cypermethrin]	40

Same assay, conditions: Anopheles stephensi; test compound 0.2 ppm, without TFNA-AM, knockdown after 1 hour; read-out: Knock Down, without TFNA-AM

SMILES	pest or weed control at 0.2 ppm [%]
CC(C)N1C(=O)N(c2ccccc2)CS/C1=N\C(C)(C)C [Buprofezin]	0
CC1(C)C(C=C(Cl)Cl)C1C(=O)OC(C#N)c1cccc(Oc2ccccc2)c1 (centres unmarked) [Cypermethrin]	0

Same assay, conditions: Anopheles stephensi; test compound 2 ppm, without TFNA-AM, after 24 hours; read-out: mortality % 24, without TFNA-AM

SMILES	mortality at 2 ppm [%]
CC(C)N1C(=O)N(c2ccccc2)CS/C1=N\C(C)(C)C [Buprofezin]	0
CC1(C)C(C=C(Cl)Cl)C1C(=O)OC(C#N)c1cccc(Oc2ccccc2)c1 (centres unmarked) [Cypermethrin]	100

Same assay, conditions: Anopheles stephensi; test compound 2 ppm, without TFNA-AM, after 48 hours; read-out: mortality % 48, without TFNA-AM

SMILES	mortality at 2 ppm [%]
CC(C)N1C(=O)N(c2ccccc2)CS/C1=N\C(C)(C)C [Buprofezin]	0
CC1(C)C(C=C(Cl)Cl)C1C(=O)OC(C#N)c1cccc(Oc2ccccc2)c1 (centres unmarked) [Cypermethrin]	100

Same assay, conditions: Anopheles stephensi; test compound 2 ppm, without TFNA-AM, knockdown after 1 hour; read-out: Knock Down, without TFNA-AM

SMILES	pest or weed control at 2 ppm [%]
CC(C)N1C(=O)N(c2ccccc2)CS/C1=N\C(C)(C)C [Buprofezin]	0
CC1(C)C(C=C(Cl)Cl)C1C(=O)OC(C#N)c1cccc(Oc2ccccc2)c1 (centres unmarked) [Cypermethrin]	100

Same assay, conditions: Anopheles stephensi; test compound 20 ppm, without TFNA-AM, after 24 hours; read-out: mortality % 24, without TFNA-AM

SMILES	mortality at 20 ppm [%]
CC(C)N1C(=O)N(c2ccccc2)CS/C1=N\C(C)(C)C [Buprofezin]	0
CC1(C)C(C=C(Cl)Cl)C1C(=O)OC(C#N)c1cccc(Oc2ccccc2)c1 (centres unmarked) [Cypermethrin]	100

Same assay, conditions: Anopheles stephensi; test compound 20 ppm, without TFNA-AM, after 48 hours; read-out: mortality % 48, without TFNA-AM

SMILES	mortality at 20 ppm [%]
CC(C)N1C(=O)N(c2ccccc2)CS/C1=N\C(C)(C)C [Buprofezin]	0
CC1(C)C(C=C(Cl)Cl)C1C(=O)OC(C#N)c1cccc(Oc2ccccc2)c1 (centres unmarked) [Cypermethrin]	100

Same assay, conditions: Anopheles stephensi; test compound 20 ppm, without TFNA-AM, knockdown after 1 hour; read-out: Knock Down, without TFNA-AM

SMILES	pest or weed control at 20 ppm [%]
CC(C)N1C(=O)N(c2ccccc2)CS/C1=N\C(C)(C)C [Buprofezin]	0
CC1(C)C(C=C(Cl)Cl)C1C(=O)OC(C#N)c1cccc(Oc2ccccc2)c1 (centres unmarked) [Cypermethrin]	100

Same assay, conditions: Anopheles stephensi; test compound 200 ppm, without TFNA-AM, after 24 hours; read-out: mortality % 24, without TFNA-AM

SMILES	mortality at 200 ppm [%]
CC(C)N1C(=O)N(c2ccccc2)CS/C1=N\C(C)(C)C [Buprofezin]	0

Same assay, conditions: Anopheles stephensi; test compound 200 ppm, without TFNA-AM, after 48 hours; read-out: mortality % 48, without TFNA-AM

SMILES	mortality at 200 ppm [%]
CC(C)N1C(=O)N(c2ccccc2)CS/C1=N\C(C)(C)C [Buprofezin]	0

Same assay, conditions: Anopheles stephensi; test compound 200 ppm, without TFNA-AM, knockdown after 1 hour, adult females; read-out: Knock Down, without TFNA-AM

SMILES	pest or weed control at 200 ppm [%]
CC(C)N1C(=O)N(c2ccccc2)CS/C1=N\C(C)(C)C [Buprofezin]	0

Same assay, conditions: test compound 0.02 ppm plus 2 ppm TFNA-AM, after 24 hours

SMILES	mortality % 24, with TFNA-AM [%]
CC1(C)C(C=C(Cl)Cl)C1C(=O)OC(C#N)c1cccc(Oc2ccccc2)c1 (centres unmarked) [Cypermethrin]	80

Same assay, conditions: test compound 0.02 ppm plus 2 ppm TFNA-AM, knockdown after 1 hour

SMILES	Knock Down, with TFNA-AM [%]
CC1(C)C(C=C(Cl)Cl)C1C(=O)OC(C#N)c1cccc(Oc2ccccc2)c1 (centres unmarked) [Cypermethrin]	100

Same assay, conditions: test compound 0.2 ppm plus 2 ppm TFNA-AM, after 24 hours

SMILES	mortality % 24, with TFNA-AM [%]
CC(C)N1C(=O)N(c2ccccc2)CS/C1=N\C(C)(C)C [Buprofezin]	80
CC1(C)C(C=C(Cl)Cl)C1C(=O)OC(C#N)c1cccc(Oc2ccccc2)c1 (centres unmarked) [Cypermethrin]	100

Same assay, conditions: test compound 0.2 ppm plus 2 ppm TFNA-AM, after 48 hours

SMILES	mortality % 48, with TFNA-AM [%]
CC(C)N1C(=O)N(c2ccccc2)CS/C1=N\C(C)(C)C [Buprofezin]	60
CC1(C)C(C=C(Cl)Cl)C1C(=O)OC(C#N)c1cccc(Oc2ccccc2)c1 (centres unmarked) [Cypermethrin]	100

Same assay, conditions: test compound 0.2 ppm plus 2 ppm TFNA-AM, knockdown after 1 hour

SMILES	Knock Down, with TFNA-AM [%]
CC(C)N1C(=O)N(c2ccccc2)CS/C1=N\C(C)(C)C [Buprofezin]	100
CC1(C)C(C=C(Cl)Cl)C1C(=O)OC(C#N)c1cccc(Oc2ccccc2)c1 (centres unmarked) [Cypermethrin]	100

Same assay, conditions: test compound 2 ppm plus 2 ppm TFNA-AM, after 24 hours

SMILES	mortality % 24, with TFNA-AM [%]
CC(C)N1C(=O)N(c2ccccc2)CS/C1=N\C(C)(C)C [Buprofezin]	100
CC1(C)C(C=C(Cl)Cl)C1C(=O)OC(C#N)c1cccc(Oc2ccccc2)c1 (centres unmarked) [Cypermethrin]	100

Same assay, conditions: test compound 2 ppm plus 2 ppm TFNA-AM, after 48 hours

SMILES	mortality % 48, with TFNA-AM [%]
CC(C)N1C(=O)N(c2ccccc2)CS/C1=N\C(C)(C)C [Buprofezin]	60
CC1(C)C(C=C(Cl)Cl)C1C(=O)OC(C#N)c1cccc(Oc2ccccc2)c1 (centres unmarked) [Cypermethrin]	100

Same assay, conditions: test compound 2 ppm plus 2 ppm TFNA-AM, knockdown after 1 hour

SMILES	Knock Down, with TFNA-AM [%]
CC(C)N1C(=O)N(c2ccccc2)CS/C1=N\C(C)(C)C [Buprofezin]	100
CC1(C)C(C=C(Cl)Cl)C1C(=O)OC(C#N)c1cccc(Oc2ccccc2)c1 (centres unmarked) [Cypermethrin]	100

Same assay, conditions: test compound 20 ppm plus 2 ppm TFNA-AM, after 24 hours

SMILES	mortality % 24, with TFNA-AM [%]
CC(C)N1C(=O)N(c2ccccc2)CS/C1=N\C(C)(C)C [Buprofezin]	100
CC1(C)C(C=C(Cl)Cl)C1C(=O)OC(C#N)c1cccc(Oc2ccccc2)c1 (centres unmarked) [Cypermethrin]	100

Same assay, conditions: test compound 20 ppm plus 2 ppm TFNA-AM, after 48 hours

SMILES	mortality % 48, with TFNA-AM [%]
CC(C)N1C(=O)N(c2ccccc2)CS/C1=N\C(C)(C)C [Buprofezin]	60
CC1(C)C(C=C(Cl)Cl)C1C(=O)OC(C#N)c1cccc(Oc2ccccc2)c1 (centres unmarked) [Cypermethrin]	100

Same assay, conditions: test compound 20 ppm plus 2 ppm TFNA-AM, knockdown after 1 hour

SMILES	Knock Down, with TFNA-AM [%]
CC(C)N1C(=O)N(c2ccccc2)CS/C1=N\C(C)(C)C [Buprofezin]	100
CC1(C)C(C=C(Cl)Cl)C1C(=O)OC(C#N)c1cccc(Oc2ccccc2)c1 (centres unmarked) [Cypermethrin]	100

Same assay, conditions: test compound 200 ppm plus 2 ppm TFNA-AM, after 24 hours

SMILES	mortality % 24, with TFNA-AM [%]
CC(C)N1C(=O)N(c2ccccc2)CS/C1=N\C(C)(C)C [Buprofezin]	80

Same assay, conditions: test compound 200 ppm plus 2 ppm TFNA-AM, after 48 hours

SMILES	mortality % 48, with TFNA-AM [%]
CC(C)N1C(=O)N(c2ccccc2)CS/C1=N\C(C)(C)C [Buprofezin]	40

Same assay, conditions: test compound 200 ppm plus 2 ppm TFNA-AM, knockdown after 1 hour

SMILES	Knock Down, with TFNA-AM [%]
CC(C)N1C(=O)N(c2ccccc2)CS/C1=N\C(C)(C)C [Buprofezin]	100
